Experimental data as given in ChEMBL document CHEMBL1201862, “PubChem BioAssay data set” (2004).
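Exposure lasted 48 hours, with cells grown in 96-well plates and compounds tested at five concentrations. At the GI50, growth is halved.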 Activity calls are given as the source filed them. No stated cut-off is given here; in the data, active = GI50 up to about 1.1 µM and inactive = higher.

Legend:
Assay in all cases: NCI tumour cell line growth inhibition, 48 h
[1] = test system: A498
[2] = test system: A549
[3] = test system: CAKI-1
[4] = test system: CCRF-CEM
[5] = test system: COLO 205
[6] = test system: DLD-1
[7] = test system: DMS-114
[8] = test system: DMS-273
[9] = test system: EKVX
[10] = test system: HCC 2998
[11] = test system: HCT-116
[12] = test system: HCT-15
[13] = test system: HL-60
[14] = test system: HOP-18
[15] = test system: HOP-62
[16] = test system: HOP-92
[17] = test system: HT-29
[18] = test system: IGROV-1
[19] = test system: K562
[20] = test system: KM-20L2
[21] = test system: KM12
[22] = test system: LOX IMVI
[23] = test system: M19-MEL
[24] = test system: MCF7
[25] = test system: MOLT-4
[26] = test system: Malme-3M
[27] = test system: NCI-H226
[28] = test system: NCI-H23
[29] = test system: NCI-H460
[30] = test system: NCI-H522
[31] = test system: NCI/ADR-RES
[32] = test system: OVCAR-3
[33] = test system: OVCAR-4
[34] = test system: OVCAR-5
[35] = test system: OVCAR-8
[36] = test system: RPMI-8226
[37] = test system: RXF 393
[38] = test system: SF-268
[39] = test system: SF-295
[40] = test system: SF-539
[41] = test system: SK-MEL-28
[42] = test system: SK-MEL-2
[43] = test system: SK-MEL-5
[44] = test system: SK-OV-3
[45] = test system: SN12C
[46] = test system: SNB-19
[47] = test system: SNB-75
[48] = test system: SNB-78
[49] = test system: SW-620
[50] = test system: U-251
[51] = test system: UACC-257
[52] = test system: UACC-62
[53] = test system: UO-31
[54] = test system: XF498
[55] = test system: ACHN
[56] = test system: BT-549
[57] = test system: DU-145
[58] = test system: Hs-578T
[59] = test system: M14
[60] = test system: MDA-MB-231
[61] = test system: MDA-MB-435
[62] = test system: MDA-N
[63] = test system: PC-3
[64] = test system: SR
[65] = test system: T47D
[66] = test system: TK-10

What does the source list for `CC(C)NC(=O)OCc1c(CO)c2c(n1C)-c1ccccc1CC2`?
GI50 [1]: 55.5 µM (inactive); GI50 [2]: 40.6 µM (inactive); GI50 [3]: 15.8 µM (inactive); GI50 [4]: 12.6 µM (inactive); GI50 [5]: 21 µM (inactive); GI50 [6]: 20.7 µM (inactive); GI50 [7]: 18.7 µM (inactive); GI50 [8]: 26.8 µM (inactive); GI50 [9]: 69.2 µM (inactive); GI50 [10]: 19.9 µM (inactive); GI50 [11]: 17.2 µM (inactive); GI50 [12]: 23.3 µM; GI50 [13]: 16.4 µM (inactive); GI50 [14]: 15 µM (inactive); GI50 [15]: > 58.3 µM (inactive); GI50 [16]: 18.2 µM (inactive); GI50 [17]: 24.5 µM (inactive); GI50 [18]: 27.5 µM (inactive); GI50 [19]: 15.2 µM (inactive); GI50 [20]: 30.8 µM (inactive); GI50 [21]: 34.4 µM (inactive); GI50 [22]: 25.4 µM (inactive); GI50 [23]: 23.9 µM (inactive); GI50 [24]: 37.6 µM (inactive); GI50 [25]: 14.3 µM (inactive); GI50 [26]: 23.9 µM (inactive); GI50 [27]: 21.7 µM (inactive); GI50 [28]: 26.7 µM (inactive); GI50 [29]: 25.5 µM (inactive); GI50 [30]: 16.7 µM (inactive); GI50 [31]: 24.5 µM (inactive); GI50 [32]: 22.4 µM (inactive); GI50 [33]: 26.3 µM (inactive); GI50 [34]: 80.7 µM (inactive); GI50 [35]: 22.5 µM (inactive); GI50 [36]: 17.7 µM (inactive); GI50 [37]: 23.5 µM (inactive); GI50 [38]: 36.1 µM (inactive); GI50 [39]: 86.9 µM (inactive); GI50 [40]: 23.6 µM (inactive); GI50 [41]: 25.9 µM (inactive); GI50 [42]: 37.1 µM (inactive); GI50 [43]: 27.2 µM (inactive); GI50 [44]: 55.1 µM (inactive); GI50 [45]: 24.3 µM (inactive); GI50 [46]: 42.2 µM (inactive); GI50 [47]: 33 µM (inactive); GI50 [48]: 33.8 µM (inactive); GI50 [49]: 20 µM (inactive); GI50 [50]: 27 µM (inactive); GI50 [51]: 31.3 µM (inactive); GI50 [52]: 18.3 µM (inactive); GI50 [53]: 23.7 µM (inactive); GI50 [54]: 14.2 µM (inactive)

Which results are given for `CCCCS(=N)(=O)CC[C@H](N)C(=O)O` (stereo not given in full) [BUTHIONINE SULFOXIME]?
GI50 [1]: 4820 µM (inactive); GI50 [2]: > 5000 µM (inactive); GI50 [55]: > 5000 µM (inactive); GI50 [56]: > 5000 µM (inactive); GI50 [3]: 3400 µM (inactive); GI50 [4]: 1040 µM (inactive); GI50 [5]: > 5000 µM (inactive); GI50 [6]: > 5000 µM (inactive); GI50 [7]: > 5000 µM (inactive); GI50 [8]: > 5000 µM (inactive); GI50 [57]: > 5000 µM (inactive); GI50 [9]: 1450 µM (inactive); GI50 [10]: > 5000 µM (inactive); GI50 [11]: > 5000 µM (inactive); GI50 [12]: 4250 µM; GI50 [13]: 665 µM (inactive); GI50 [14]: > 5000 µM (inactive); GI50 [15]: > 5000 µM (inactive); GI50 [16]: 171 µM (inactive); GI50 [17]: > 5000 µM (inactive); GI50 [58]: > 2810 µM (inactive); GI50 [18]: 2110 µM (inactive); GI50 [19]: > 5000 µM (inactive); GI50 [20]: > 5000 µM (inactive); GI50 [21]: > 5000 µM (inactive); GI50 [22]: 237 µM (inactive); GI50 [59]: > 5000 µM (inactive); GI50 [23]: > 5000 µM (inactive); GI50 [24]: > 4190 µM (inactive); GI50 [60]: > 5000 µM (inactive); GI50 [61]: > 5000 µM (inactive); GI50 [62]: > 10000 µM (inactive); GI50 [25]: 2550 µM (inactive); GI50 [26]: > 5000 µM (inactive); GI50 [27]: > 5000 µM (inactive); GI50 [28]: 3420 µM (inactive); GI50 [29]: 4730 µM (inactive); GI50 [30]: 140 µM (inactive); GI50 [31]: 2840 µM (inactive); GI50 [32]: > 4130 µM (inactive); GI50 [33]: 2290 µM (inactive); GI50 [34]: > 5000 µM (inactive); GI50 [35]: 2320 µM (inactive); GI50 [63]: > 5000 µM (inactive); GI50 [36]: 2460 µM (inactive); GI50 [37]: > 5000 µM (inactive); GI50 [38]: 4260 µM (inactive); GI50 [39]: > 5000 µM (inactive); GI50 [40]: 4910 µM (inactive); GI50 [41]: > 5000 µM (inactive); GI50 [42]: > 5000 µM (inactive); GI50 [43]: > 5000 µM (inactive); GI50 [44]: > 5000 µM (inactive); GI50 [45]: > 5000 µM (inactive); GI50 [46]: > 5000 µM (inactive); GI50 [47]: 2320 µM (inactive); GI50 [48]: > 5000 µM (inactive); GI50 [64]: 286 µM (inactive); GI50 [49]: > 5000 µM (inactive); GI50 [65]: > 5000 µM (inactive); GI50 [66]: > 5000 µM (inactive); GI50 [50]: > 5000 µM (inactive); GI50 [51]: > 5000 µM (inactive); GI50 [52]: > 5000 µM (inactive); GI50 [53]: 2480 µM (inactive); GI50 [54]: 476 µM (inactive)
